The values below come from patent publication US10774080B2, “Pyrimidine compound as JAK kinase inhibitor” (THERAVANCE BIOPHARMA R&D IP, LLC, priority 2017, dated 2020).

The test system of one test is CCL2 gene expression. Kind of test: Assay 7: ex vivo JAK PD assay, freshly excised human skin, CCL2. To be noted: 0.5% ointment, about 40 hours continuous exposure, Th1-skewed stimulation (TNFα, IFNγ, IL-12), vs vehicle. As to the method:
Assay 7: Ex Vivo JAK Pharmacodynamic (PD) Assay Using Human Freshly Excised Skin An ex vivo JAK pharmacodynamics (PD) assay was conducted using human isolated skin tissue. The PD assay used fresh human skin (dermatome of 750 μm thickness) that was mounted in static Franz cells with a surface area of ˜0.5 cm^2. The receiver chambers of the Franz cells were filled with warm (37° C.) cornification media and placed in an incubator at 37° C. The skin was topically dosed with 10 μL ([…]) of compound (I) or vehicle and was left undisturbed overnight (˜24 hours). The next day, with no re-application of the test compound or vehicle, the media was replaced with a Th1-skewed stimulation cocktail consisting of TNFα, IFNγ and IL-12. The skin was left undisturbed for an additional 16 hours, and then harvested and processed for RNA extraction and qPCR of biomarkers: CXCL10, CCL2. GAPDH was used as an internal standard. The compound (I) was formulated in an ointment formulation at 0.5% strength. A total of three skin donors (tested in quadruplicates/sample/treatment) were used. Treatment effect was calculated as the percent increase or decrease in stimulation compared to the vehicle group. [table]

For test [1], the system named is IL-22 suppressed Filaggrin expression. Briefly: Assay 15: recovery of IL-22 suppressed Filaggrin in normal human epidermal keratinocytes. To be noted: IL-22 50 ng/mL, 4 days. The class given is cell-based. As to the method: Assay 15: Recovery of IL-22 Suppressed Filaggrin in Normal Human Epidermal Keratinocytes
IL-22 is known to inhibit the expression of terminal differentiation genes, such as Filaggrin. The recovery level of test compound for interleukin-22 (IL-22) suppressed Filaggrin expression was measured in the normal human epidermal keratinocytes (ATCC) using real-time PCR.
Primary epidermal keratinocytes were cultured in a 37° C., 5% CO2 humidified incubator in dermal cell basal medium (ATCC) supplemented with keratinocyte growth kit (ATCC) and 1× Pen/Strep (Life Technologies). Cells were seeded at 5,000 cells/well in BioCoat 96-well plates (Corning) with 100 μl and incubated at 37° C., 5% CO2 for 3 to 4 days till 100% confluency. Then, the medium was removed and replaced with 150 μL of medium containing does-response of test compounds. Compounds were serially diluted in DMSO and then diluted another 1000-fold in media to bring the final DMSO concentration to 0.1%. On day 1 of the assay, cells were incubated with test compounds at 37° C. for 1 h, and followed by the addition of followed by the addition of IL-22 (R&D Systems; final concentration 50 ng/mL) in pre-warmed media (50 μL) for 4 days. […] Fluorescence signals were captured after each cycle. Comparative CT method was used to quantify gene expression with cells without IL-22 and test compounds as baseline control.

In a further test the target is T1, Tyk2 (Homo sapiens, UniProt P29597).
T1 construct: GST; purchased Life Technologies
T1 sequence (P29597 whole entry): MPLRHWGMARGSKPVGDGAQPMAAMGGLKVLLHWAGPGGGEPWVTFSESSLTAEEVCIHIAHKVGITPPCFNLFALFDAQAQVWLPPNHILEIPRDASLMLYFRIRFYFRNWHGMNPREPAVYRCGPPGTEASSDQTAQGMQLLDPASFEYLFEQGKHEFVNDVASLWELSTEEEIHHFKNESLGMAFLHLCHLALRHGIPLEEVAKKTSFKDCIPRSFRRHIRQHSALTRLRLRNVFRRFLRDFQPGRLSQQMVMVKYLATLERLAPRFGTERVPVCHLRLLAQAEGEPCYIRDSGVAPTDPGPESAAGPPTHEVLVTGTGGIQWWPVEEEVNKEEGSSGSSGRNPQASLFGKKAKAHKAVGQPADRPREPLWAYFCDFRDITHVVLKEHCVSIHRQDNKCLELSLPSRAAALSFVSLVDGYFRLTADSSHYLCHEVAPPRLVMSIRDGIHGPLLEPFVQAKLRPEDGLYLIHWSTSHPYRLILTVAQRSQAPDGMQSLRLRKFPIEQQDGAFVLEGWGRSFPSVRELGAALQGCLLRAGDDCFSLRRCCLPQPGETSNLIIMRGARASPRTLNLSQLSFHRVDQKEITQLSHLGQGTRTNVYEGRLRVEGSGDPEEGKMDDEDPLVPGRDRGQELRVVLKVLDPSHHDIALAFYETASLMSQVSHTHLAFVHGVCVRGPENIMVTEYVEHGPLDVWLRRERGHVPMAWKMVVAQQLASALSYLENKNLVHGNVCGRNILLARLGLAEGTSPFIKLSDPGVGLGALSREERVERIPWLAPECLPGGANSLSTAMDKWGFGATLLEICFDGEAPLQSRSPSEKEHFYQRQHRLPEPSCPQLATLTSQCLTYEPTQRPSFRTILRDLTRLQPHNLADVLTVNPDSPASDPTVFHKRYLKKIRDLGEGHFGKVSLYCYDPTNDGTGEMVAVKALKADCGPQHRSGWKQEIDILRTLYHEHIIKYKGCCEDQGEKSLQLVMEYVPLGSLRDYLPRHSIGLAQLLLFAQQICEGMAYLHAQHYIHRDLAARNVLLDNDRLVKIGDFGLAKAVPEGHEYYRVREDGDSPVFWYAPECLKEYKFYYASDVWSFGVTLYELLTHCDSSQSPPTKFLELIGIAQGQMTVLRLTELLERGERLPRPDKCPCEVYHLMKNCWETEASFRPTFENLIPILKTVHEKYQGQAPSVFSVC
Briefly: Biochemical Tyk2 kinase assay (LanthaScreen). The note with it: read-out: Tyk 2 (pKi) (converted). As to the method: Assay 1: Biochemical JAK and Tyk2 Kinase Assays A panel of four LanthaScreen JAK biochemical assays (JAK1, 2, 3 and Tyk2) were carried in a common kinase reaction buffer (50 mM HEPES, pH 7.5, 0.01% Brij-35, 10 mM MgCl2, and 1 mM EGTA). Recombinant GST-tagged JAK enzymes and a GFP-tagged STAT1 peptide substrate were obtained from Life Technologies. Serially or discretely diluted compounds were pre-incubated with each of the four JAK enzymes and the substrate in white 384-well microplates (Corning) at ambient temperature for 1 h. ATP was subsequently added to initiate the kinase reactions in 10 μL total volume, with 1% DMSO. […] The plates were allowed to incubate at ambient temperature for 1 h before being read on the EnVision reader (Perkin Elmer). Emission ratio signals (520 nm/495 nm) were recorded and utilized to calculate the percent inhibition values based on DMSO and background controls. For dose-response analysis, percent inhibition data were plotted vs. compound concentrations, and IC50 values were determined from a 4-parameter robust fit model with the Prism software (GraphPad Software). Results were expressed as pIC50 (negative logarithm of IC50) and subsequently converted to pKi (negative logarithm of dissociation constant, Ki) using the Cheng-Prusoff equation.
(In general: Time-resolved FRET reads energy transfer from a long-lived donor to a nearby acceptor.)

`CCS(=O)(=O)N1[C@@H]2CCC[C@H]1C[C@H](N(C)c1nc(CO)c(F)c(Nc3cc(C)[nH]n3)n1)C2` [Compound (I), (2-(((1R,3s,5S)-9-(ethylsulfonyl)-9-azabicyclo[3.3.1]nonan-3-yl)(methyl)amino)-5-fluoro-6-((5-methyl-1H-pyrazol-3-yl)amino)pyrimidin-4-yl)methanol]: the “PD-% Inhibition (mean ± SD) CCL2” value in the test on CCL2 gene expression is on record as 61.3%. In addition, in test [1], the “concentration at which recovery of IL-22 suppressed Filaggrin expression was observed” value was under 1 µM. For the same compound, the Ki at Tyk2 was 0.126 nM.
